Results from patent US11857535B2, “Methods of treating mutant lymphomas” (Kymera Therapeutics, Inc., priority 2020, dated 2024).
Where two headings read alike, the source gives them in different places.

Experiments:
IRAK4 [1] = molecular target: T1, IRAK4 (Homo sapiens, UniProt Q9NWZ3); experiment: Deep proteomics / degradation time course in OCI-Ly10 (FIG. 8); type: cell-based; conditions: OCI-Ly10, between 16-24 h post treatment
T1 construct: endogenous in cells; host or cells: OCI-Ly10
T1 sequence (Q9NWZ3 1-460): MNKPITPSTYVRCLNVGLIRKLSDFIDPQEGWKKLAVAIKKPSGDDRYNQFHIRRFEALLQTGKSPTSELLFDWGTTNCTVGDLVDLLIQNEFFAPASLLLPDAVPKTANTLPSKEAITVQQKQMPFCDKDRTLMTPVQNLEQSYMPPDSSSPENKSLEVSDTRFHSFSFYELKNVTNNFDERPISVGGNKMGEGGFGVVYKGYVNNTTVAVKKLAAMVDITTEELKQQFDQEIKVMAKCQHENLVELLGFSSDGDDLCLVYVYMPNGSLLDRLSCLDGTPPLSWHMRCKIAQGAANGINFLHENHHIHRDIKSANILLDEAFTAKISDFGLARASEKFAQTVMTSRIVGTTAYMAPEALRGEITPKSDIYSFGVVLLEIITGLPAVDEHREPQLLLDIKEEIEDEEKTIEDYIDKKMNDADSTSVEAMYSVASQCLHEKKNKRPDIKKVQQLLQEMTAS
Text: FIG. 8 depicts deep proteomics scatterplots showing degradation of IRAK4 and IMiD substrates in OCI-Ly10 using Compound A. Type 1 IFN signaling was activated in OCI-Ly10 MYD88^MT DLBCL.

Aiolos = molecular target: T2, Aiolos (Homo sapiens, UniProt Q96SW2+Q9UKT9); experiment: Aiolos degradation in OCI-Ly10 xenograft tumors (tumor PD); type: in vivo; conditions: after 5d dosing
T2 construct: from tissue; host or cells: OCI-Ly10 xenograft tumours grown in mice
T2 sequence (Q9UKT9 whole entry): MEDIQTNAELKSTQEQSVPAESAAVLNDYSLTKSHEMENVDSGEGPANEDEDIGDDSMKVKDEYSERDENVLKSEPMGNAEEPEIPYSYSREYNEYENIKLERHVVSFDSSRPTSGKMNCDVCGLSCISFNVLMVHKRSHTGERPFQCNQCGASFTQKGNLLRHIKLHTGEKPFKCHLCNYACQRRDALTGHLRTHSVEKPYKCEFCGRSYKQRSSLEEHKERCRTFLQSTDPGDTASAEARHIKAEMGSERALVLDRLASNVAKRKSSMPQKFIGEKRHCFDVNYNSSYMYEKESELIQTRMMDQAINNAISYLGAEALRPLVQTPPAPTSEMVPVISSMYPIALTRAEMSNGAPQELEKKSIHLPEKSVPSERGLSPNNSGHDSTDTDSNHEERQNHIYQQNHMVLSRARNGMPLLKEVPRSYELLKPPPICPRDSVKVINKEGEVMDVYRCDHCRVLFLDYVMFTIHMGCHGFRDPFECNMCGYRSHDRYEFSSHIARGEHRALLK
T2 sequence (Q96SW2 whole entry): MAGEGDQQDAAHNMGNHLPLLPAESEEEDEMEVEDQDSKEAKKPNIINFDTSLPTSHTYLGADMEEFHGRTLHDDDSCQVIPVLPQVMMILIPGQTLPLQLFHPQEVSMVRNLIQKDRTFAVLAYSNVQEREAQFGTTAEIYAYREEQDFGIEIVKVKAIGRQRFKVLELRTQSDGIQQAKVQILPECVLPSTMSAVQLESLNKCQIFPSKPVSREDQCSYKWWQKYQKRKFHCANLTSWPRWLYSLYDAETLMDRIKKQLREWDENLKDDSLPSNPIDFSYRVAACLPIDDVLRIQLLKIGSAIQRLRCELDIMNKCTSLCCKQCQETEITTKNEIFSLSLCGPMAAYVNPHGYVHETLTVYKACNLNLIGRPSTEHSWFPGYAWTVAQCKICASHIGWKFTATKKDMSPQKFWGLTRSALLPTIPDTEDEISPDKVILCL
T2 sequence (Q16531 whole entry partner): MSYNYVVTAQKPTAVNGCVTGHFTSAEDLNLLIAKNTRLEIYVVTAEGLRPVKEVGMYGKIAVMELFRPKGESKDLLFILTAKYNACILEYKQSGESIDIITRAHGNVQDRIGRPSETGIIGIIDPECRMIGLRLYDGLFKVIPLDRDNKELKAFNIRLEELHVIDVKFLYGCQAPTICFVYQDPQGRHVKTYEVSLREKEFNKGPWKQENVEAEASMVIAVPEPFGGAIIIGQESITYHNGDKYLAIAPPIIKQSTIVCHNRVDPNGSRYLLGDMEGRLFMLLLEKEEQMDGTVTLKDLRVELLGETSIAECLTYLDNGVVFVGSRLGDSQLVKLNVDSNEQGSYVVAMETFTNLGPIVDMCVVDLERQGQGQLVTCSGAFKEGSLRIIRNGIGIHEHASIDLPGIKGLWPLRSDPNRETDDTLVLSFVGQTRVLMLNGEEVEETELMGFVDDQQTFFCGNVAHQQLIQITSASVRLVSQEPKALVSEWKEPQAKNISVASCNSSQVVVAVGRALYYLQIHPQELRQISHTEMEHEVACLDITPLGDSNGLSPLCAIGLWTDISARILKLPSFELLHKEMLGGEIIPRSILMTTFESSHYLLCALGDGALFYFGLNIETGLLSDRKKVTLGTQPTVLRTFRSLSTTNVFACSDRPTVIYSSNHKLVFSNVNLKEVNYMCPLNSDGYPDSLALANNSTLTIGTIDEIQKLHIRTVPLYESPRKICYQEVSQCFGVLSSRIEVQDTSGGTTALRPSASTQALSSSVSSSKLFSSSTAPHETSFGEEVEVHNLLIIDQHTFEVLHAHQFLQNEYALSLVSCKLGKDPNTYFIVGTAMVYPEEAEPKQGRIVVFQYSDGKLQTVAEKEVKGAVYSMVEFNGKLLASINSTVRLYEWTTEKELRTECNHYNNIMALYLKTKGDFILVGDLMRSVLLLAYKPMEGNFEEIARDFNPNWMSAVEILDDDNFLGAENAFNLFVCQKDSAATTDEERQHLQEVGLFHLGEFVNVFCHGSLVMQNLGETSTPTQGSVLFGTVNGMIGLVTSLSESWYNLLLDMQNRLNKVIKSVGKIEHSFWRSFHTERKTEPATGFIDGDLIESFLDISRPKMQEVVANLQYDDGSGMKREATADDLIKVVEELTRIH
Procedure: Target exposure for efficacy in OCI-Ly10 is steady state C24h of 10-80 nM based on either a 3 mpk or 10 mpk dose. Rapid regressions are associated with strong degradation of both IRAK4 and IMiD substrates.

OCI-Ly10 = experiment: CTG cell viability assay - OCI-Ly10; type: cell-based; conditions: Homo sapiens, 96 h; OCI-Ly10, 4 days
Procedure: Compound-mediated viability effect on OCI-Ly10 or SUDHL-2 was quantitatively determined using the CellTiter-Glo® Luminescent Cell Viability Assay kit from Promega (Catalog number G7570) following manufacturer's recommended procedures. Briefly, OCI-Ly10 or SUDHL-2 cells were seeded into 384 well plates (Grenier Bio-One, Catalog number 781080) with a density of 10,000 cells per well. Compounds were then added to the assay plate with final top concentration of 10 μM and 1:3 dilution series with total of 9 doses. The final DMSO concentration was normalized to 0.2%. The assay plates were incubated at 37° C. for 4 days under 5% CO2. Then the assay plate was equilibrated at room temperature for 10 minutes. To determine cell viability, 30 μL CellTiter Glo reagent was added to each well and the assay plate was centrifuged at 1000 rpm for 30 second, incubated at room temperature for 10 min, and analyzed by detecting the luminescence using a multimode plate reader (EnVision 2105, PerkinElmer). The data was then analyzed by software Prism 7.0 from GraphPad and the dose response curves were fit using a three-parameter logistic equation to calculate IC50.

[2] = Human dose prediction by matching AUCs with intermittent dosing regimens in mice models; conditions: mouse, read-out: Weekly AUC
Procedure: Human dose predictions from intermittent dosing supports dose targets for both IV and PO dosing.
IV formulation up to 300 mg/dose is feasible (exposure for efficacy is 100-300 mg/dose). Dosing to ≥400 mg likely possible (>80% POS based on initial formulation assessment). Projected PO upper dose of 900 mg/day is feasible. May be divided into BID dosing to achieve exposure. High pill burden or unusual formulation strategy (e.g., mix and drink) may be needed. PO versus IV dosing in compared in Table 14.

IRAK4 [3] = molecular target: T1, IRAK4; experiment: IRAK4 MSD degradation in OCI-Ly10; type: cell-based; conditions: FIG. 1
Procedure: Degradation of IRAK4 in OCI-Ly10 was quantitatively measured using Meso Scale Discovery technology. OCI-Ly10 cells were seeded in 96-well plates (Corning 3799) with a density of 300,000 cells per well in 100 μL fresh media. Compounds were then added to the assay plates with a final top concentration of 1 to 10 μM in a 1:3 dilution series with total of 8 doses. The assay plates were then incubated for 4 to 24 hours at 37° C. under 5% CO2. The assay plates were then centrifuged for 5 minutes and the cell pellets were treated with 100 μL/well RIPA lysis buffer (Boston BioProducts BP-115D) with proteinase inhibitors. To prepare MSD assay plates (Meso Scale Discovery Catalog number L15XA-3), the plates were coated with 2 μg/mL capture antibody (mouse Anti-IRAK4 antibody [2H9], ab119942) in PBS, at 40 μL/well. The plates were then incubated overnight at 4° C., washed 3 times with 150 μL/well TBST buffer (Cell Signaling Technology, Catalog number 9997S) and blocked with 150 μL/well blocking buffer (Meso Scale Discovery Catalog number R93BA-4). Cell lysates were then added to MSD assay plates and the plates were incubated at room temperature for 1 hour. The plates were then washed 3 times with 150 μL/well TBST buffer and […] primary detection antibody (rabbit Anti-IRAK4 antibody [Y279], from Abcam. Catalog number ab32511, 1 μg/mL). The assay plates were then incubated at room temperature for 1 hour, washed 3 times with 150 μL/well TBST buffer and 25 μL/well secondary detection antibody, SULFO-TAG anti-rabbit antibody were added (anti rabbit antibody from Meso Scale Discovery, Catalog number R32AB-1, 1 μg/mL). The assay plates were then incubated at room temperature for 1 hour, washed 3 times with 150 μL/well TBST buffer, and 150 μL/well MSD reading buffer (Meso Scale Discovery catalog number R92TC-2) was added. The plates were then analyzed by a MSD reader (Meso Scale Discovery, Model Quick Plex SQ 120). The data was then analyzed by software Prism 7.0 from GraphPad and the dose-depended IRAK4 degradation were fit using a three-parameter logistic equation to calculate DC50.

SMILES: CC(C)(O)c1cc2nc([C@H]3CC[C@H](CN4CC5(CC(CCNc6cccc7c6C(=O)N(C6CCC(=O)NC6=O)C7=O)C5)C4)CC3)sc2cc1NC(=O)c1cccc(C(F)(F)F)n1 (stereo partly drawn) [Compound A, N-(2-((1r,4r)-4-((6-(2-((2-(2,6-dioxopiperidin-3-yl)-1,3-dioxoisoindolin-4-yl)amino)ethyl)-2-azaspiro[3.3]heptan-2-yl)methyl)cyclohexyl)-5-(2-hydroxypropan-2-yl)benzo[d]thiazol-6-yl)-6-(trifluoromethyl)picolinamide]
- degradation of IRAK4 (time course) (IRAK4 [1]): > 80%
- Aiolos (% Deg) (Aiolos; 3 mpk): 49%
- Aiolos (% Deg) (Aiolos; 10 mpk): 91%
- Aiolos (% Deg) (Aiolos; 30 mpk): 97%
- IC50 (OCI-Ly10): < 50 nM
- AUC ([2]; 3 mg/kg, OCI-Ly10 model, IV 3 mpk BIW): 12 µM·h
- AUC ([2]; 10 mg/kg, OCI-Ly10 model, PO 10 mpk BIW): 7 µM·h
- AUC at 1 week ([2]; 12 mg/kg, OCI-Ly10 model, IV 12 mpk QW): 24 µM·h
- AUC ([2]; 30 mg/kg, DHL2 model, PO 30 mpk BIW): 18 µM·h
- AUC at 1 week ([2]; 30 mg/kg, OCI-Ly10 model, PO 30 mpk QW): 18 µM·h
- AUC ([2]; DHL2 model, IV ~10 (est.) mpk BIW, estimated): ~36 µM·h
- IRAK4 degradation associated with CTG IC90 (IRAK4 [3]): approximately 70%
